{
  "source": "paper PMC6429214",
  "about": "“Design, Synthesis and Biological Evaluation of Isoxazole-Based CK1 Inhibitors Modified with Chiral Pyrrolidine Scaffolds” (Molecules, 2019)",
  "assay_in_all_cases": "33PanQinase panel",
  "type_in_all_cases": "biochemical",
  "key": {"MINK1": {"target": "T1, MINK1 (Homo sapiens, UniProt Q8N4C8)", "T1 construct": "purchased ProQinase", "settings": "MINK1, 1 µM; read-out: Residual Activity (%)", "how_it_was_run": "(§1)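 Kinases were screened with the inhibitor at a single concentration of 1 µM. Activity was measured radiometrically with 33P, and each reaction mix contained 1% DMSO. Data are expressed as percentage residual activity compared with DMSO control.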"}, "CDK8/CycC": {"target": "T2, CDK8/CycC (Homo sapiens, UniProt P49336)", "T2 construct": "purchased ProQinase", "settings": "read-out: Residual Activity (%)", "how_it_was_run": "as §1"}, "NEK4": {"target": "T3, NEK4 (Homo sapiens, UniProt P51957)", "T3 construct": "purchased ProQinase", "settings": "NEK4, 1 µM; read-out: Residual Activity (%)", "how_it_was_run": "as §1"}, "CAMK2A": {"target": "T4, CAMK2A (Homo sapiens, UniProt Q9UQM7)", "T4 construct": "purchased ProQinase", "T4 sequence (Q9UQM7 whole entry)": "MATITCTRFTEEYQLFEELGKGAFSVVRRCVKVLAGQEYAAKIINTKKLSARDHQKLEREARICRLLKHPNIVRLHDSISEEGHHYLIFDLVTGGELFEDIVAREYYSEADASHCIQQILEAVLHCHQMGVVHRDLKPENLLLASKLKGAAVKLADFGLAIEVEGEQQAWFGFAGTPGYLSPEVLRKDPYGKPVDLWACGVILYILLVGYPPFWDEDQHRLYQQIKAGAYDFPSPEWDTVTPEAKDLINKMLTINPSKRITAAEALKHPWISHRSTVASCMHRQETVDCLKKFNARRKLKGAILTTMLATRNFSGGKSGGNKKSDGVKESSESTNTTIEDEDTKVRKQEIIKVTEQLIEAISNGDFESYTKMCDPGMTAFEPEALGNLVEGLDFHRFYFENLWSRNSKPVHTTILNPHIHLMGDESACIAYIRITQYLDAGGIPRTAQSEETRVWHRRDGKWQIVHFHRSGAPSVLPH", "settings": "read-out: Residual Activity (%)", "how_it_was_run": "as §1"}, "FLT3": {"target": "T5, FLT3 (Homo sapiens, UniProt P36888)", "T5 construct": "purchased ProQinase", "settings": "FLT3, 1 µM; read-out: Residual Activity (%)", "how_it_was_run": "as §1"}, "PKC-theta": {"target": "T6, PKC-theta (Homo sapiens, UniProt Q04759)", "T6 construct": "purchased ProQinase", "T6 sequence (Q04759 whole entry)": "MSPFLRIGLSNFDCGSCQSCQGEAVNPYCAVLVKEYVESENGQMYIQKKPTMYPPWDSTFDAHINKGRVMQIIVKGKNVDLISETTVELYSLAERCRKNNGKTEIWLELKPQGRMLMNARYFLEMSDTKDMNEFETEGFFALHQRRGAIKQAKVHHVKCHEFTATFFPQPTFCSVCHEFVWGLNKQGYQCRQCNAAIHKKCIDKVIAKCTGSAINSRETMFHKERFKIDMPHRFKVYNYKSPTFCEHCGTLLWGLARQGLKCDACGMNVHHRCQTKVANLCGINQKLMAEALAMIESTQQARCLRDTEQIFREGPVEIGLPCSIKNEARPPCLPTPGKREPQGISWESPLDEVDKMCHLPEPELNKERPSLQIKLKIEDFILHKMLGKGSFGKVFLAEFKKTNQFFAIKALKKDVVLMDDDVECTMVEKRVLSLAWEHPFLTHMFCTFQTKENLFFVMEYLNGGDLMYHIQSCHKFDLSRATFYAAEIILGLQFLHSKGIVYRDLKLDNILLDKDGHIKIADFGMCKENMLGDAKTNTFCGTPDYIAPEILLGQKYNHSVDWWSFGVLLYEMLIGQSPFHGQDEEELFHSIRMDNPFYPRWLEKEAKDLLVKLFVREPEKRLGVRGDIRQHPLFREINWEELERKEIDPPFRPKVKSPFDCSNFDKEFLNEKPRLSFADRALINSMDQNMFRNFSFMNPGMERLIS", "settings": "read-out: Residual Activity (%)", "how_it_was_run": "as §1"}, "YES": {"target": "T7, YES (Homo sapiens, UniProt P07947)", "T7 construct": "purchased ProQinase", "settings": "read-out: Residual Activity (%)", "how_it_was_run": "as §1"}, "PHKG1": {"target": "T8, PHKG1 (Homo sapiens, UniProt Q16816)", "T8 construct": "purchased ProQinase", "settings": "PHKG1, 1 µM; read-out: Residual Activity (%)", "how_it_was_run": "as §1"}, "EPHB3": {"target": "T9, EPHB3 (Homo sapiens, UniProt P54753)", "T9 construct": "purchased ProQinase", "settings": "EPHB3, 1 µM; read-out: Residual Activity (%)", "how_it_was_run": "as §1"}, "TYK2": {"target": "T10, TYK2 (Homo sapiens, UniProt P29597)", "T10 construct": "purchased ProQinase", "settings": "TYK2, 1 µM; read-out: Residual Activity (%)", "how_it_was_run": "as §1"}, "EPHA8": {"target": "T11, EPHA8 (Homo sapiens, UniProt P29322)", "T11 construct": "purchased ProQinase", "settings": "EPHA8, 1 µM; read-out: Residual Activity (%)", "how_it_was_run": "as §1"}, "TTBK1": {"target": "T12, TTBK1 (Homo sapiens, UniProt Q5TCY1)", "T12 construct": "purchased ProQinase", "settings": "TTBK1, 1 µM; read-out: Residual Activity (%)", "how_it_was_run": "as §1"}, "PRK1": {"target": "T13, PRK1 (Homo sapiens, UniProt Q16512)", "T13 construct": "purchased ProQinase", "settings": "PRK1, 1 µM; read-out: Residual Activity (%)", "how_it_was_run": "as §1"}, "CDK9/CycK": {"target": "T14, CDK9/CycK (Homo sapiens, UniProt P50750)", "T14 construct": "purchased ProQinase", "T14 sequence (P50750 whole entry)": "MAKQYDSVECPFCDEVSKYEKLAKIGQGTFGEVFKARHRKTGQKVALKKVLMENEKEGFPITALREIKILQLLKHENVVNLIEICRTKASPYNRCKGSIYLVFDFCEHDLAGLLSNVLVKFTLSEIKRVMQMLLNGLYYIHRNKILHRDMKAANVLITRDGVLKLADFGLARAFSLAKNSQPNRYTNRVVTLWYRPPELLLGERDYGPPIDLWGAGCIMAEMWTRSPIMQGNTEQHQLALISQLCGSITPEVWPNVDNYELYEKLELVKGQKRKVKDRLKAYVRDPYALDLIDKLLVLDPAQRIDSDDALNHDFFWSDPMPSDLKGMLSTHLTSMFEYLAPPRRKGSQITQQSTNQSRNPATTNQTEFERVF", "T14 sequence (O75909 whole entry partner)": "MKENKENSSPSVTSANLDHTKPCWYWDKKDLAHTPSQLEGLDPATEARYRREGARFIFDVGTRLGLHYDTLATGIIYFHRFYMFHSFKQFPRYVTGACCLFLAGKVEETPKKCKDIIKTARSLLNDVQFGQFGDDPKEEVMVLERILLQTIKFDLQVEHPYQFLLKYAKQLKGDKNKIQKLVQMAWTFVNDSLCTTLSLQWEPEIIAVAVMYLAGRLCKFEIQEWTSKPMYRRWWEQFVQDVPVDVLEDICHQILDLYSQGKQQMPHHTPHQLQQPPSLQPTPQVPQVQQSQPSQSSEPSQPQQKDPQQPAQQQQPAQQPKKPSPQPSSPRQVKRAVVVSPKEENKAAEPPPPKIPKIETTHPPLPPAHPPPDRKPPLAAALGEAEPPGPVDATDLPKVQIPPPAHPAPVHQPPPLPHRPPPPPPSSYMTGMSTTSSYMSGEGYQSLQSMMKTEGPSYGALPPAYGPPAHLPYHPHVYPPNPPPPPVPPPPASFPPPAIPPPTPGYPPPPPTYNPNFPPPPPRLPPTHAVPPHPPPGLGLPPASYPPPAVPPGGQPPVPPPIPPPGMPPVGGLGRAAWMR", "settings": "read-out: Residual Activity (%)", "how_it_was_run": "as §1"}, "ASK1": {"target": "T15, ASK1 (Homo sapiens, UniProt Q99683)", "T15 construct": "purchased ProQinase", "settings": "ASK1, 1 µM; read-out: Residual Activity (%)", "how_it_was_run": "as §1"}, "PKC-beta1": {"target": "T16, PKC-beta1 (Homo sapiens, UniProt P05771)", "T16 construct": "purchased ProQinase", "settings": "PKC-beta1, 1 µM; read-out: Residual Activity (%)", "how_it_was_run": "as §1"}, "WNK1": {"target": "T17, WNK1 (Homo sapiens, UniProt Q9H4A3)", "T17 construct": "purchased ProQinase", "settings": "WNK1, 1 µM; read-out: Residual Activity (%)", "how_it_was_run": "as §1"}, "SNK": {"target": "T18, SNK (Homo sapiens, UniProt Q9NYY3)", "T18 construct": "purchased ProQinase", "settings": "read-out: Residual Activity (%)", "how_it_was_run": "as §1"}, "MST4": {"target": "T19, MST4 (Homo sapiens, UniProt Q9P289)", "T19 construct": "purchased ProQinase", "settings": "MST4, 1 µM; read-out: Residual Activity (%)", "how_it_was_run": "as §1"}, "mTOR": {"target": "T20, mTOR (Homo sapiens, UniProt P42345)", "T20 construct": "purchased ProQinase", "settings": "read-out: Residual Activity (%)", "how_it_was_run": "as §1"}, "ERBB4": {"target": "T21, ERBB4 (Homo sapiens, UniProt Q15303)", "T21 construct": "purchased ProQinase", "settings": "ERBB4, 1 µM; read-out: Residual Activity (%)", "how_it_was_run": "as §1"}, "RPS6KA6": {"target": "T22, RPS6KA6 (Homo sapiens, UniProt Q9UK32)", "T22 construct": "purchased ProQinase", "T22 sequence (Q9UK32 whole entry)": "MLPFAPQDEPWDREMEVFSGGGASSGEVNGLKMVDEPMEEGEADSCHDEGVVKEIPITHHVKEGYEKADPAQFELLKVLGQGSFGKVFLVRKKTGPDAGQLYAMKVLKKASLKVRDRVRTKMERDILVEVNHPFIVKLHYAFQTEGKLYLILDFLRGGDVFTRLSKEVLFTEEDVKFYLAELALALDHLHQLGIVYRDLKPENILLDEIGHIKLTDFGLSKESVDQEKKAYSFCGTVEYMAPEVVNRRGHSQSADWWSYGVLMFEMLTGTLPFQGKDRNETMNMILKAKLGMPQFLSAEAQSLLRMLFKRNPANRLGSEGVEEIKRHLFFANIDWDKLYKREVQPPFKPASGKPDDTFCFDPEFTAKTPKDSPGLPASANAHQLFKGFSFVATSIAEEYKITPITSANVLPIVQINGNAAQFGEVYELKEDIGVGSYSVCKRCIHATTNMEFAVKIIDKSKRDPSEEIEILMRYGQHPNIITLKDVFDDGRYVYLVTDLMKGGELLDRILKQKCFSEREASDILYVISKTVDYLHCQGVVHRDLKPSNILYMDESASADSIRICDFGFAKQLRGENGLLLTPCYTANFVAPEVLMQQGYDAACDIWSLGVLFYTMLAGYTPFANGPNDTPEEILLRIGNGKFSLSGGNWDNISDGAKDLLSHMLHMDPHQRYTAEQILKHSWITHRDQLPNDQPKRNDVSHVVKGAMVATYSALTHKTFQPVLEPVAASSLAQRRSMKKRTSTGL", "settings": "RPS6KA6, 1 µM; read-out: Residual Activity (%)", "how_it_was_run": "as §1"}, "PYK2": {"target": "T23, PYK2 (Homo sapiens, UniProt Q14289)", "T23 construct": "purchased ProQinase", "settings": "PYK2, 1 µM; read-out: Residual Activity (%)", "how_it_was_run": "as §1"}, "CDK5/p25NCK": {"target": "T24, CDK5/p25NCK (Homo sapiens, UniProt Q00535)", "T24 construct": "purchased ProQinase", "T24 sequence (Q00535 whole entry)": "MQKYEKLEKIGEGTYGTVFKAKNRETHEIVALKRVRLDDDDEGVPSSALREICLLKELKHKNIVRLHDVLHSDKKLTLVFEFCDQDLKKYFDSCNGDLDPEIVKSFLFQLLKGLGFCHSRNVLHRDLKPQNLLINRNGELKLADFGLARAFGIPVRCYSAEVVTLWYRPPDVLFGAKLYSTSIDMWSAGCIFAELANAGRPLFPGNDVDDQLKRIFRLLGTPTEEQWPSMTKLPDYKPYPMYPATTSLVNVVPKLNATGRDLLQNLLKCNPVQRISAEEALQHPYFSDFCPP", "T24 sequence (Q15078 99-307 partner limits assumed)": "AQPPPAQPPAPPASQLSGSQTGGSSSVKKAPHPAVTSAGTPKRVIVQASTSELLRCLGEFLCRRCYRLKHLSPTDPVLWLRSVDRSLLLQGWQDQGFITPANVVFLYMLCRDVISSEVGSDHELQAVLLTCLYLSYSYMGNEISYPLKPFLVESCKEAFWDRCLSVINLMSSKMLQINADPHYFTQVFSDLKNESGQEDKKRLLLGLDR", "settings": "read-out: Residual Activity (%)", "how_it_was_run": "as §1"}, "FER": {"target": "T25, FER (Homo sapiens, UniProt P16591)", "T25 construct": "purchased ProQinase", "T25 sequence (P16591 whole entry)": "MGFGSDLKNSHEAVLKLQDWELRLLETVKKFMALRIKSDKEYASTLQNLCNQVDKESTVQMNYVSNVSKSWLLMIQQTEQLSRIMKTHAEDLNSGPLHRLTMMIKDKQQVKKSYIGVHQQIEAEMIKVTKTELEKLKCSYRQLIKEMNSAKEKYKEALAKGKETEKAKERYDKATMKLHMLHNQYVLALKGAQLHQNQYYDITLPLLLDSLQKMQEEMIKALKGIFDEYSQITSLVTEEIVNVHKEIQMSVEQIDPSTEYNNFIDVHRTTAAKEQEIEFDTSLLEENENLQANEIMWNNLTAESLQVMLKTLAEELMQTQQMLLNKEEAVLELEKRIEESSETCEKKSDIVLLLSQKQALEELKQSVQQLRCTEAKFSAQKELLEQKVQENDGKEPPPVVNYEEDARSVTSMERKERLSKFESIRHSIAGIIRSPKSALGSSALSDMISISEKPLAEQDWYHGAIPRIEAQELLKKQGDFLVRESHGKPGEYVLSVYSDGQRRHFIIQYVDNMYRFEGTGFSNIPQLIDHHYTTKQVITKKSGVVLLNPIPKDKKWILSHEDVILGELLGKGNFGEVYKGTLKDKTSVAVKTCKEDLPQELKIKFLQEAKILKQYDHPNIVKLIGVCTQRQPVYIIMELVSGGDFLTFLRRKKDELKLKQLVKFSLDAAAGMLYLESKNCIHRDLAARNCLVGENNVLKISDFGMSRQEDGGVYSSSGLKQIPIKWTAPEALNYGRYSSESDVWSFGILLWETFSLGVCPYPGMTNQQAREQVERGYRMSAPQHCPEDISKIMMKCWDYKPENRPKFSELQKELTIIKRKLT", "settings": "read-out: Residual Activity (%)", "how_it_was_run": "as §1"}, "PRKG2": {"target": "T26, PRKG2 (Homo sapiens, UniProt Q13237)", "T26 construct": "purchased ProQinase", "settings": "PRKG2, 1 µM; read-out: Residual Activity (%)", "how_it_was_run": "as §1"}, "PAK1": {"target": "T27, PAK1 (Homo sapiens, UniProt Q13153)", "T27 construct": "purchased ProQinase", "T27 sequence (Q13153 whole entry)": "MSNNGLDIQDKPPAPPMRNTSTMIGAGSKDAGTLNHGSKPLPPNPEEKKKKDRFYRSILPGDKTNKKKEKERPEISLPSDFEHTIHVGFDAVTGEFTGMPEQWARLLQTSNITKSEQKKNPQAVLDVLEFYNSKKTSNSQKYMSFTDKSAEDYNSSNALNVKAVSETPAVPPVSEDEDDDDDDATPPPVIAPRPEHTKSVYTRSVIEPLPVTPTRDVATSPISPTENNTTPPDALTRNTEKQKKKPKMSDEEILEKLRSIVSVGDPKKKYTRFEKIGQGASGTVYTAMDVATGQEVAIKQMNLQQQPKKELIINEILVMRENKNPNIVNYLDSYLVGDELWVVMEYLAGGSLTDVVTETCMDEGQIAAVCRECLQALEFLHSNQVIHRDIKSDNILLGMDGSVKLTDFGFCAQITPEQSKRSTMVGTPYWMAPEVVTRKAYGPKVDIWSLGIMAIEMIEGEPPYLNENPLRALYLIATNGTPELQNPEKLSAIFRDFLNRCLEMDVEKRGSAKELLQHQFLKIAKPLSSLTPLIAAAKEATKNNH", "settings": "PAK1, 1 µM; read-out: Residual Activity (%)", "how_it_was_run": "as §1"}},
  "data": [
    {"smiles": "COc1ccc(-c2cc(C(=O)Nc3cc(-c4c(-c5ccc(F)cc5)noc4C(C)C)ccn3)n(CC3NCC(O)C3O)c2)cc1", "note": "(stereo not drawn) [29d]", "values": [
      {"measurement": "remaining activity at 1 µM", "setting": "MINK1", "result": 82, "unit": "%"},
      {"measurement": "remaining activity at 1 µM", "setting": "CDK8/CycC", "result": 106, "unit": "%"},
      {"measurement": "remaining activity at 1 µM", "setting": "NEK4", "result": 108, "unit": "%"},
      {"measurement": "remaining activity at 1 µM", "setting": "CAMK2A", "result": 87, "unit": "%"},
      {"measurement": "remaining activity at 1 µM", "setting": "FLT3", "result": 87, "unit": "%"},
      {"measurement": "remaining activity at 1 µM", "setting": "PKC-theta", "result": 101, "unit": "%"},
      {"measurement": "remaining activity at 1 µM", "setting": "YES", "result": 126, "unit": "%"},
      {"measurement": "remaining activity at 1 µM", "setting": "PHKG1", "result": 90, "unit": "%"},
      {"measurement": "remaining activity at 1 µM", "setting": "EPHB3", "result": 138, "unit": "%"},
      {"measurement": "remaining activity at 1 µM", "setting": "TYK2", "result": 85, "unit": "%"},
      {"measurement": "remaining activity at 1 µM", "setting": "EPHA8", "result": 113, "unit": "%"},
      {"measurement": "remaining activity at 1 µM", "setting": "TTBK1", "result": 104, "unit": "%"},
      {"measurement": "remaining activity at 1 µM", "setting": "PRK1", "result": 94, "unit": "%"},
      {"measurement": "remaining activity at 1 µM", "setting": "CDK9/CycK", "result": 97, "unit": "%"},
      {"measurement": "remaining activity at 1 µM", "setting": "ASK1", "result": 107, "unit": "%"},
      {"measurement": "remaining activity at 1 µM", "setting": "PKC-beta1", "result": 116, "unit": "%"},
      {"measurement": "remaining activity at 1 µM", "setting": "WNK1", "result": 90, "unit": "%"},
      {"measurement": "remaining activity at 1 µM", "setting": "SNK", "result": 108, "unit": "%"},
      {"measurement": "remaining activity at 1 µM", "setting": "MST4", "result": 108, "unit": "%"},
      {"measurement": "remaining activity at 1 µM", "setting": "mTOR", "result": 127, "unit": "%"},
      {"measurement": "remaining activity at 1 µM", "setting": "ERBB4", "result": 103, "unit": "%"},
      {"measurement": "remaining activity at 1 µM", "setting": "RPS6KA6", "result": 89, "unit": "%"},
      {"measurement": "remaining activity at 1 µM", "setting": "PYK2", "result": 116, "unit": "%"},
      {"measurement": "remaining activity at 1 µM", "setting": "CDK5/p25NCK", "result": 92, "unit": "%"},
      {"measurement": "remaining activity at 1 µM", "setting": "FER", "result": 98, "unit": "%"},
      {"measurement": "remaining activity at 1 µM", "setting": "PRKG2", "result": 100, "unit": "%"},
      {"measurement": "remaining activity at 1 µM", "setting": "PAK1", "result": 88, "unit": "%"}
    ]}
  ]
}
